Laboratory results from PubChem BioAssay AID1845219 (Molecular Pharmacology Branch, DTP, NCI, 2023).
“And” between values parts separate entries of the source, which are not always exact repeats. Identical values can stand only once.

Tested on: SYO-1 tumor spheroids, viability % test/control
Test: Anticancer human tumor SYO-1 cell line growth inhibition;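 also: spheroids exposed to agents for 7 days before viability read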;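 as to viability, T/C: 100% = DMSO vehicle control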
Settings: spheroids with HUVEC and MSC; for viability, T/C: stronger effect = lower value
Source text: Multicellular complex tumor spheroid response to DNA repair inhibitors in combination with DNA-damaging drugs
This study explores the anticancer activities of DNA-damaging drugs and inhibitors of DNA damage repair, both as single agents and in combinations. Complex tumor spheroids comprised of malignant cells, endothelial cells and mesenchymal stem cells served as an in vitro model for human solid tumors. This model system incorporates physiologically relevant features and patient-derived or established malignant cell lines with clinically relevant genetic alterations from many tumor types. Twenty-six patient-derived or established malignant cell lines were evaluated representing sarcoma, melanoma, small cell lung cancer (SCLC), non-small cell lung cancer (NSCLC), as well as bladder, ovarian and pancreatic cancers. The concentration ranges selected for each drug and investigational agent were based upon clinically achievable concentrations if the clinical Cmax of the agent was known.
Compounds. The drugs and compounds olaparib (NSC753686), talazoparib (NSC767125), berzosertib (NSC777718), elimusertib (NSC800525), nedisertib (NSC802822), VX-984 (NSC792969), AZD-1390 (NSC803789), temozolomide (NSC362856), topotecan (NSC609699), trabectedin (NSC813783), staurosporine (NSC755774), and gemcitabine (NSC613327) were obtained from the National Cancer Institute (NCI) Developmental Therapeutics Program Chemical Repository. The FDA-approved anticancer drug set is available from the Developmental Therapeutics Program at https://dtp.cancer.gov/organization/dscb/obtaining/available_plates.htm. […] The stock solutions were prepared in dimethyl sulfoxide (DMSO, Sigma-Aldrich, St. Louis, MO, cat. D2650) at 400-fold the tested concentration and stored at -70 degrees C. Prior to their use, the stock solutions were diluted in fresh medium and the final DMSO concentration in the assay was 0.25% (v/v). All drugs and investigational agents were tested over a range starting from a high concentration at or near the clinical Cmax and decreasing in half-log increments. If the clinical Cmax for an agent had not been determined, the highest concentration tested was 10 microM.
Cell Lines. The patient-derived cancer cell (PDC) lines: 156681-154-R-J1-PDC, 283228-195-R-J1-PDC, 287954-098-R-J1-PDC, 292921-168-R-J2-PDC, 349418-098-R-PDC, 425362-245-T-J1-PDC, 556581-035-R-J1-PDC, and BL0293-F563-PDC were received from the NCI Patient-Derived Models Repository (PDMR, https://pdmr.cancer.gov). The established cell lines HS-SY-2 (RRID:CVCL_8719), MPNST, and SYO-1 (RRID:CVCL_7146) were obtained from the Sloan Kettering Institute. The alveolar soft parts sarcoma cell line ASPS-1 (RRID:CVCL_S738) was established at the NCI and grown from internal seed stocks. The following established cell lines were purchased from the American Type Culture Collection (ATCC, Manassas, VA): G-401 (ATCC, cat. CRL-1441, RRID:CVCL_0270), SW982 (ATCC, cat. HTB-93, RRID:CVCL_1734), VA-ES-BJ (ATCC, cat. CRL-2138, RRID:CVCL_1785), NCI-H719 (ATCC, cat. CRL-5837, RRID:CVCL_1582), NCI-H196 (ATCC, cat. CRL-5823, RRID:CVCL_1509), NCI-H841 (ATCC, cat. CRL-5845, RRID:CVCL_1595), NCI-H1618 (ATCC, cat. CRL-5879, RRID:CVCL_1480), NCI-H1876 (ATCC, cat. CRL-5902, RRID:CVCL_1503), DMS 114 (ATCC, cat. CRL-2066; RRID:CVCL_1174), NCI-H211 (ATCC, cat. CRL-5824; RRID:CVCL_1529), and SW 1271 (ATCC, cat. CRL-2177, RRID:CVCL_1716). The small cell lung cancer cell line COR-L88 was purchased from Sigma-Aldrich (cat. 92031917-1VL, RRID:CVCL_1141). The non-small cell lung cancer cell lines NCI-H226 (RRID:CVCL_1544) and NCI-H322M (RRID:CVCL_1557) were established at the NCI and grown from internal seed stocks. Pooled donor human umbilical vein endothelial cells (HUVEC, Lonza, cat. CC-2519) and human mesenchymal stem cells (hMSC, Lonza, cat. PT-2501) were purchased from Lonza (Walkersville, MD).
Cell Culture. All cells were maintained in an incubator at 37 degrees C and 5% CO2 with 95% humidity. […]

[1] = compound alone, run of 12/02/2019
[2] = compound alone, run of 12/12/2019

Structure (SMILES) | viability, T/C (compound 0.0316 µM) | viability, T/C (compound 0.1 µM) | viability, T/C (compound 0.316 µM) | viability, T/C (compound 1 µM) | viability, T/C (compound 3.16 µM) | viability, T/C (compound 10 µM) | IC50 (curve of compound) | viability, T/C (compound 0.03 µM) | viability, T/C (compound 0.0949 µM) | viability, T/C (compound 0.3 µM) | viability, T/C (compound 0.949 µM) | viability, T/C (compound 3 µM) | other results
CC(C)n1c(=O)n(C)c2cnc3cc(F)c(-c4ccc(OCCCN5CCCCC5)nc4)cc3c21 | 105% and 101% and 96.7% | 103% and 101% and 98.9% | 84.4% and 102% and 93.8% | 103% and 102% and 104% | 107% and 103% and 104% | 64.1% and 48% and 48.3% | > 10000 nM and 9600 nM and 9620 nM | – | – | – | – | – | –
CC1COCCN1c1cc(-c2ccnn2C)c2ccnc(-c3ccn[nH]3)c2n1 (stereo not given) | – | 3.02% and 9.27% and 5.04% | 1.96% and 2.61% and 2.62% | 1.13% and 1.61% and 1.44% | 0.59% and 0.92% and 0.71% | 0.6% and 0.99% and 0.58% | < 31.6 nM and 32.1 nM | – | – | – | – | – | –
CC[C@@]1(O)C(=O)OCc2c1cc1n(c2=O)Cc2cc3c(CN(C)C)c(O)ccc3nc2-1 | – | – | – | – | – | – | – | 1.67% [middle of 10 runs] | 1.54% [middle of 10 runs] | 1.88% [middle of 10 runs] | – | – | viability, T/C (compound 0.003 µM): 92.2% [middle of 10 runs]; IC50 [1]: 5.58 nM [middle of 5 runs]; IC50 [2]: 6.49 nM [middle of 5 runs]
CNCc1ccc(-c2cc(-c3nc(-c4ccc(S(=O)(=O)C(C)C)cc4)cnc3N)on2)cc1 | – | – | – | – | – | – | 138 nM and 159 nM and 161 nM | 101% and 99.2% and 99% | 72.5% and 86.8% and 89.3% | 3.37% and 4.34% and 3.43% | 0.29% and 0.76% and 0.36% | 0.18% and 0.19% (2×) | viability, T/C (compound 0.00949 µM): 101% and 100% and 109%
COc1cc(C)[nH]c(=O)c1CN1CCc2c(Cl)cc(C(OC)C3COC3)c(Cl)c2C1=O (stereo not given) | 114% and 106% (2×) | 110% and 115% and 112% | 95.1% and 101% and 106% | 78.1% and 82.5% and 90.5% | 67.7% and 80% and 82.7% | 59.9% and 73.2% and 75.6% | > 10000 nM | – | – | – | – | – | –
COc1cc2c(cc1O)CCNC21CSC2c3c(OC(C)=O)c(C)c4c(c3C(COC1=O)N1C(O)C3Cc5cc(C)c(OC)c(O)c5C(C21)N3C)OCO4 (stereo not given) | – | – | – | – | – | – | – | – | – | – | – | – | viability, T/C (compound 30 pM): 97.6% [middle of 10 runs]; viability, T/C (compound 0.0003 µM): 14.7% [middle of 10 runs]; viability, T/C (compound 0.000949 µM): 1.05% [middle of 10 runs]; viability, T/C (compound 0.003 µM): 0.12% [middle of 7 runs]; IC50 [2]: 0.179 nM [middle of 9 runs]
COc1ccc([C@@H](O)c2cc(-c3ncnc4cc(N5CCOCC5)ccc34)c(F)cc2Cl)nn1 | 109% and 108% and 104% | 108% and 107% and 101% | 104% and 106% and 103% | 105% and 101% and 102% | 66.1% (2×) and 84.2% | 7.28% and 14.2% and 20.4% | 4310 nM and 4520 nM and 5860 nM | – | – | – | – | – | –
Cc1cc(C)c(CNC(=O)c2cc(-c3ccc(CN4CCOCC4)cc3)cc3c2cnn3C2CCCC2)c(=O)[nH]1 | 106% and 109% and 103% | 106% and 109% and 100% | 108% and 97.8% and 99.2% | 107% and 104% and 103% | 112% and 104% (2×) | 106% and 67% and 88.7% | > 10000 nM | – | – | – | – | – | –
Cc1sc2c(c1C)C(c1ccc(Cl)cc1)=NC(CC(=O)Nc1ccc(O)cc1)c1nnc(C)n1-2 (stereo not given) | – | – | – | – | – | – | 66.5 nM and 93.4 nM and 105 nM | 90.7% and 90.8% and 85.5% | 31.8% and 49.4% and 54.7% | 1.04% and 3.66% and 1.07% | 0.73% and 0.9% and 0.49% | 0.63% and 0.72% and 0.4% | viability, T/C (compound 0.00949 µM): 93.8% and 91.9% and 91.3%
Cn1ncnc1[C@H]1c2n[nH]c(=O)c3cc(F)cc(c23)N[C@@H]1c1ccc(F)cc1 | – | – | – | – | – | – | 19 nM and 17.4 nM and 17.7 nM | 29.5% and 23.3% and 18.3% | 4.75% and 5.28% and 5.09% | 2.61% and 2.85% and 2.82% | 1.54% and 2.38% and 1.48% | 1.36% and 1.92% and 1.26% | viability, T/C (compound 0.00949 µM): 81.1% and 79.7% and 87.3%
Cn1nnc2c(C(N)=O)ncn2c1=O | – | – | – | 102% [middle of 9 runs] | 98.2% [middle of 10 runs] | 100% [middle of 10 runs] | – | – | – | – | – | – | viability, T/C (compound 31.6 µM): 106% [middle of 10 runs]; IC50 [1]: > 100000 nM and 88300 nM
O=C(c1cc(Cc2n[nH]c(=O)c3ccccc23)ccc1F)N1CCN(C(=O)C2CC2)CC1 | – | – | – | – | – | – | 1760 nM and 2160 nM and 1750 nM | – | 102% (2×) and 103% | 100% and 103% and 99.2% | 90.7% and 93.7% and 94.1% | 14.7% and 32.7% and 11% | viability, T/C (compound 9.49 µM): 3.59% and 3.04% and 2.51%; viability, T/C (compound 30 µM): 2.83% and 2.91% and 2.43%
[2H]c1nc(C)nc([2H])c1-c1cc(NC[C@@H](C)c2cccc3c(C(=O)NC)ccnc23)ncn1 | 107% and 105% and 96.2% | 105% and 104% and 102% | 105% (2×) and 102% | 105% and 99% and 98.5% | 104% (2×) and 96.3% | 100% and 95.5% and 101% | > 10000 nM | – | – | – | – | – | –
